Drawing on patent US10752640B2, “Compounds active towards bromodomains” (NUEVOLUTION A/S, priority 2014, dated 2020), this text covers IC50 for 28 compounds.

Structures are written as SMILES.

A word on the IC50: it is the point on the concentration scale where inhibition reaches its midpoint. Read a high IC50 as a need for much substance.

The target of this assay is BRD4 protein (Homo sapiens, UniProt O60885). The experiment in a line: FRET assay, half maximal inhibitory concentration (IC50). Conditions: BRD4 protein 50 nM, Biotin-H4KAc4 peptide 12.5 nM; List of Classification. The class given is binding. In short, it runs like this:
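Acetylated histone H4 peptide binding (biotin-H4KAc4, 12.5 nM final) to BRD4 (50 nM final) detected by TR-FRET between streptavidin cryptate (2.4 nM) and GST-XL665 antibody (10 nM) in KF/BSA. Buffer: HEPES pH 7.5, NaCl, CHAPS. Compound dilutions from 50 μM in 12.5% DMSO were preincubated with protein for 30 min. Variable-slope IC50.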
Consider `Cc1cc(O)nc2ccc(NC(=O)c3cnccc3N3CCOCC3)cc12` [Compound-123, N-(2-hydroxy-4-methyl-6-quinolyl)-4-morpholino-pyridine-3-carboxamide], for which the IC50 was < 200 nM.

Consider `Cc1cc(O)nc2ccc(NC(=O)c3cnccc3N3CCCC3)cc12` [Compound-124, N-(2-hydroxy-4-methyl-6-quinolyl)-4-pyrrolidin-1-yl-pyridine-3-carboxamide], for which the IC50 was in the range of 200 to 500 nM.

Compound `Cc1cc2nc(O)cc(C)c2cc1NC(=O)c1cccnc1N1CCOCC1` [Compound-125, N-(2-hydroxy-4,7-dimethyl-6-quinolyl)-2-morpholino-pyridine-3-carboxamide] came in with an IC50 of 500 to 1000 nM.

`Cc1cc2nc(O)cc(C)c2cc1NC(=O)c1cccnc1N1CCC(F)C1` (stereo not shown) [Compound-126, 2-(3-fluoropyrrolidin-1-yl)-N-(2-hydroxy-4,7-dimethyl-6-quinolyl)pyridine-3-carboxamide]: the IC50 lay in the range of 500 to 1000 nM.

As for `Cc1cc2nc(O)cc(C)c2cc1NC(=O)c1cccnc1N1CCC(F)(F)C1` [Compound-127, 2-(3,3-difluoropyrrolidin-1-yl)-N-(2-hydroxy-4,7-dimethyl-6-quinolyl)pyridine-3-carboxamide], the IC50 is 200 to 500 nM.

Take `CC(C)c1cc(O)nc2ccc(NC(=O)c3cccnc3N3CCOCC3)cc12` [Compound-129]: the IC50 lay in the range of 1000 to 10000 nM.

As for `CN1Cc2cc(NC(=O)c3cccnc3N3CCOCC3)ccc2NC1=O` [Compound-130, N-(3-methyl-2-oxo-1,4-dihydroquinazolin-6-yl)-2-morpholino-pyridine-3-carboxamide], the IC50 lay in the range of 1000 to 10000 nM.

Compound `CN1C(=O)CCc2cc(NC(=O)c3cccnc3N3CCOCC3)ccc21` [Compound-131, N-(1-methyl-2-oxo-3,4-dihydroquinolin-6-yl)-2-morpholino-pyridine-3-carboxamide] registered an IC50 of 1000 to 10000 nM.

Regarding `Cc1cc(O)nc2ccc(NC(=O)c3cccnc3N3CCC(F)C3)cc12` (stereo not shown) [Compound-132, 2-(3-fluoropyrrolidin-1-yl)-N-(2-hydroxy-4-methyl-6-quinolyl)pyridine-3-carboxamide], the half-inhibitory concentration (IC50) was < 200 nM.

As to `Cc1cc(O)nc2ccc(NC(=O)c3cccnc3N3CCC(F)(F)C3)cc12` [Compound-133, 2-(3,3-difluoropyrrolidin-1-yl)-N-(2-hydroxy-4-methyl-6-quinolyl)pyridine-3-carboxamide], the half-maximal inhibitory concentration (IC50) is < 200 nM.

Consider `Cc1cc(O)nc2ccc(NC(=O)c3ccc(C(F)(F)F)nc3N3CCCC3)cc12` [Compound-134, N-(2-hydroxy-4-methyl-6-quinolyl)-2-pyrrolidin-1-yl-6-(trifluoromethyl)pyridine-3-carboxamide], for which the IC50 is < 200 nM.

As to `Cc1cc(O)nc2ccc(NC(=O)c3ccc(C(F)(F)F)nc3N3CCOCC3)cc12` [Compound-135, N-(2-hydroxy-4-methyl-6-quinolyl)-2-morpholino-6-(trifluoromethyl)pyridine-3-carboxamide], the IC50 is 200 to 500 nM.

As for `Cc1cc(O)nc2c(C)cc(NC(=O)c3cccnc3N3CCOCC3)cc12` [Compound-136, N-(2-hydroxy-4,8-dimethyl-6-quinolyl)-2-morpholino-pyridine-3-carboxamide], the IC50 was < 200 nM.

Compound `Cc1cc2nc(O)cc(C)c2cc1NC(=O)c1c(C)ccnc1N1CCOCC1` [Compound-137, N-(2-hydroxy-4,7-dimethyl-6-quinolyl)-4-methyl-2-morpholino-pyridine-3-carboxamide] showed an IC50 of 1000 to 10000 nM.

The compound `Cc1ccnc(N2CCOCC2)c1C(=O)Nc1ccc2nc(O)cc(C)c2c1` [Compound-138, N-(2-hydroxy-4-methyl-6-quinolyl)-4-methyl-2-morpholino-pyridine-3-carboxamide] registered a half-maximal inhibitory concentration (IC50) of 1000 to 10000 nM.

As to `Cc1cc(O)nc2ccc(NC(=O)c3cc(C(F)(F)F)cnc3N3CCOCC3)cc12` [Compound-139, N-(2-hydroxy-4-methyl-6-quinolyl)-2-morpholino-5-(trifluoromethyl)pyridine-3-carboxamide], the IC50 was < 200 nM.

As for `Cc1cc(O)nc2ccc(NC(=O)c3cc(Cl)cnc3N3CCOCC3)cc12` [Compound-140, 5-chloro-N-(2-hydroxy-4-methyl-6-quinolyl)-2-morpholino-pyridine-3-carboxamide], the IC50 is < 200 nM.

Regarding `Cc1cc(O)nc2ccc(NC(=O)c3cccnc3N3CCOC4CNCC43)cc12` (stereo not shown) [Compound-142, 2-(3,4a,5,6,7,7a-hexahydro-2H-pyrrolo[3,4-b][1,4]oxazin-4-yl)-N-(2-hydroxy-4-methyl-6-quinolyl)pyridine-3-carboxamide], the IC50 was < 200 nM.

Compound `Cc1cc(O)nc2ccc(NC(=O)c3cccnc3N3CCOC4COCC43)cc12` (stereo not shown) [Compound-143, 2-(2,3,4a,5,7,7a-hexahydrofuro[3,4-b][1,4]oxazin-4-yl)-N-(2-hydroxy-4-methyl-6-quinolyl)pyridine-3-carboxamide] came in with an IC50 of 500 to 1000 nM.

With `Cc1cc(O)nc2ccc(NC(=O)c3cccnc3N3C4CCC3COC4)cc12` [Compound-144, N-(2-hydroxy-4-methyl-6-quinolyl)-2-(3-oxa-8-azabicyclo[3.2.1]octan-8-yl)pyridine-3-carboxamide], the half-maximal inhibitory concentration (IC50) was < 200 nM.

On to `Cc1cc(O)nc2ccc(NC(=O)c3cccnc3N3CCOCC3CO)cc12` (stereo not shown) [Compound-145, 2-[3-(hydroxymethyl)morpholin-4-yl]-N-(2-hydroxy-4-methyl-6-quinolyl)pyridine-3-carboxamide], for which the IC50 was < 200 nM.

Take `Cc1cc(O)nc2ccc(NC(=O)c3cccnc3N3CCC(F)(F)CC3)cc12` [Compound-146, 2-(4,4-difluoro-1-piperidyl)-N-(2-hydroxy-4-methyl-6-quinolyl)pyridine-3-carboxamide]: the IC50 was < 200 nM.

In turn, `Cc1cc(O)nc2ccc(NC(=O)c3cccnc3N3CCn4ccnc4C3)cc12` [Compound-147, 2-(6,8-dihydro-5H-imidazo[1,2-a]pyrazin-7-yl)-N-(2-hydroxy-4-methyl-6-quinolyl)pyridine-3-carboxamide] yielded an IC50 of 500 to 1000 nM.

In turn, `COc1cc(O)nc2ccc(NC(=O)c3cccnc3N3CCOCC3)cc12` [Compound-149, N-(2-hydroxy-4-methoxy-6-quinolyl)-2-morpholino-pyridine-3-carboxamide] returned a half-maximal inhibitory concentration (IC50) of 500 to 1000 nM.

For `Cc1cc(O)nc2ccc(NC(=O)c3cc(-c4cnoc4)ccc3N3CCOCC3)cc12` [Compound-151, N-(2-hydroxy-4-methyl-6-quinolyl)-5-isoxazol-4-yl-2-morpholino-benzamide], the IC50 is < 200 nM.

Consider `Cc1noc(C)c1-c1ccc(N2CCOCC2)c(C(=O)Nc2ccc3nc(O)cc(C)c3c2)c1` [Compound-152, 5-(3,5-dimethylisoxazol-4-yl)-N-(2-hydroxy-4-methyl-6-quinolyl)-2-morpholino-benzamide], for which the IC50 is < 200 nM.

Consider `Cc1cc2nc(O)cc(C)c2cc1NC(=O)c1cc(-c2cnn(C)c2)ccc1N1CCOCC1` [Compound-154, N-(2-hydroxy-4,7-dimethyl-6-quinolyl)-5-(1-methylpyrazol-4-yl)-2-morpholino-benzamide], for which the IC50 is < 200 nM.

On to `Cc1cc2nc(O)cc(C)c2cc1NC(=O)c1cc(-c2c(C)noc2C)ccc1N1CCOCC1` [Compound-155, 5-(3,5-dimethylisoxazol-4-yl)-N-(2-hydroxy-4,7-dimethyl-6-quinolyl)-2-morpholino-benzamide], for which the IC50 is < 200 nM.
